These results are taken from patent publication US9689042B2, “Use of glycolytic pathways for inhibiting or measuring oncogenic signaling” (The Regents of the University of California, priority 2012, dated 2017).

Entries after “also recorded” stand apart in the source; their conditions may differ.

The subject of experiment [1] is signaling intermediates in MDA-MB-231 cells. Description: Western blots of signaling intermediates in MDA-MB-231 cells. The class given is cell-based, human. To be noted: IA 40 μM, DON 20 μM. The method, then: (§1) Cell colonies were separated from lrECM gels by shaking in PBS containing 5 mM EDTA and the proteinase inhibitor cocktail set I (Calbiochem) on ice for 30 min. Cells were lysed in lysis buffer (1% NP-40, 1% deoxycholate, 2% SDS, 150 mM NaCl, 20 mM Tris-HCl [pH 7.4] plus 5 mM EDTA and protease inhibitor cocktail set I and phosphatase inhibitor cocktail set I [Calbiochem]) and sonicated three times for 30 sec each. Proteins were separated by SDS-PAGE, transferred to nitrocellulose membranes, and probed with antibodies against the following proteins: phosphorylated MEK, MEK, phosphorylated Akt, Akt, phosphorylated AMPK, AMPK, p70S6K, phosphorylated p70S6K, CHOP, EPAC1 (Cell Signaling), β1 integrin, EGFR, activated EGFR, HIF-1α, (Chemicon International), PFKP (Abgent), GAPDH, GLUT3 (GeneTex), LDHA, PDHE1α, DLAT, DLD, HIF-3α, Rap1, sAC, EPAC2, OGT, Lamin A/C (Santa Cruz Biotechnology), Aldolase (Polysciences), GFPT (ProteinTech Group), HIF-2α (Abcam), and HA-tag (Covance). After probing with HRP-conjugated secondary antibodies, blots were developed using SuperSignal West Femto chemiluminescence reagent (Pierce Biotechnology). Images were captured using Fluor Chem 8900 imager (Alpha Innotech).
A general note: Immunoblotting shows a protein as a band on a membrane.

In experiment [2] the test system is EGFR, β1 integrin, Akt, MEK, GLUT3, glycolytic enzymes in T4-2 cells. The experiment is described as follows: Western blots of signaling intermediates, GLUT3 and metabolic enzymes in 3D lrECM cultures of T4-2 cells. The class given is cell-based, human. To be noted: T4-2 cells, 3D lrECM. The method, then: as §1
In experiment [3] the test system is MDA-MB-231 cells. The experiment is described as follows: 3D lrECM culture of MDA-MB-231 cells. The class given is cell-based, human. The note with it: IA 40 μM, DON 20 μM.
For experiment [4], the system named is T4-2 cells. To be noted: T4-2 cells, 3D lrECM; for phenotypic reversion of the malignant phenotype: 2DG 4 mM, IA 20 μM, OX 50 mM, Azs 20 μM, DON 20 μM, BADGP 5 mM, TM 10 ng/ml, OGM 4 ng/ml, Rapa 0.01-1.0 μM. The protocol: HMT-3522 cells were cultured on tissue culture plastic (2D) and in 3D lrECM gels with H14 medium, a 1:1 mix of DMEM/F12 (UCSF Cell Culture Facility) supplemented with 250 ng/ml insulin, 10 μg/ml transferrin, 2.6 ng/ml sodium selenite, 0.1 nM β-estradiol, 1.4 μM hydrocortisone and 5 μg/ml prolactin but no serum. S1 cells were additionally supplemented with 10 ng/ml EGF. MDA-MB-231 and HCC70 cells were cultured in DMEM and RPMI1640, respectively, and were supplemented with 10% fetal bovine serum (FBS).
For 3D lrECM cultures, S1 and T4-2 cells were seeded at 840,000 and 600,000 cells per cm3 respectively in lrECM gel (Cultrex), overlaid with H14 medium. MDA-MB-231 and HCC70 cells were seeded at 625,000 cell per cm3 and overlaid with H14 medium supplemented with 1% FBS. Cells were used for each assay after 10 days, unless otherwise indicated.
Pieces of lrECM gel containing cell colonies were suspended in approximately the same volume of phosphate buffered saline (PBS) and directly spread on glass slides. After brief air-drying, colonies were fixed with 3.7% paraformaldehyde (PFA) in PBS at room temperature (RT) for 10 min, washed with PBS containing 0.1 mM glycine, and permeabilized with 1:1 methanol/acetone at −20° C. for 10 min. After blocking with IF buffer (0.2% Triton X-100, 0.1% BSA [radioimmunoassay grade], 0.05% Tween 20, 7.7 mM NaN3 in PBS) containing 10% goat serum and 1% goat F(ab′)2 anti-mouse immunoglobulin G (IgG; Caltag) at RT for 30 min, colonies were stained with anti-α6 integrin antibody (Chemicon International) at 4° C. overnight. Colonies were washed extensively with IF buffer, and stained with Alexa 568-labeled anti-rat IgG antibody at RT for 2 hr. Colonies were washed with IF buffer again, and nuclei were stained with DAPI at RT for 10 min. Slides were briefly washed with PBS and mounted with 50% glycerol in PBS.
To test whether increased glucose metabolism itself is required for oncogenic signaling events, we utilized 3D lrECM cultures of HMT-3522, a breast cancer progression series which includes non-malignant (S1) and malignant (T4-2) human breast epithelial cells from the same individual (Briand et al., 1987; Petersen et al., 1992; Rizki et al., 2008). Using these cells, we have described the involvement and reciprocity of multiple signaling pathways including EGFR, β1 integrin, PI3K-Akt and MEK-ERK in oncogenic events (Beliveau et al., 2010; Bissell et al., 2005). […] We thus used this “phenotypic reversion” of the cancer cells as an assay to examine how the signaling integration plan of the breast acini could involve glucose metabolism.

A further experiment concerns HCC70 cells. The experiment is described as follows: 3D lrECM culture of HCC70 cells. The note with it: IA 2 μM, DON 20 μM. The format is cell-based, human.
For a further experiment, the system named is Rap1. The experiment is described as follows: Measurement of Rap1 activity (GST-RalGDS-RBD pull-down) in T4-2 cells. The class given is cell-based, human. To be noted: T4-2 cells, 3D lrECM, IA 20 μM. The protocol: Rap1 activity was measured as described previously (Itoh et al., 2007). Briefly, cell colonies were extracted from lrECM as described above, and lysed in lysis buffer (50 mM Tris-HCl [pH 7.4], 500 mM NaCl, 1% NP40, 2.5 mM MgCl2, 10% glycerol, 10 μg/ml aprotinin and 10 μg/ml leupeptin) at 4° C. for 30 min. Lysates were cleared by centrifugation at 15,000×g at 4° C. for 15 min. Supernatants (containing 300 μg protein in 300 μl) were incubated with 15 μg of GST-tagged RalGDS-RBD fusion protein immobilized on Glutathione Sepharose 4B beads (GE Healthcare), at 4° C. for 1 hr. Beads were washed trice in lysis buffer and resuspended in Laemmli buffer. Samples were separated by SDS-PAGE, followed by transfer to polyvinylidene fluoride membranes (0.2 μm pore) and immunoblotting using anti-Rap1 antibody.

The test system of experiment [5] is MDA-MB-231 cells. The experiment is described as follows: In vitro invasive activity (Matrigel invasion chamber). The class given is cell-based, human. The note with it: IA 40 μM, DON 20 μM, 17.5 mM glucose, 16 hours. The method, then: Invasive activity was examined using BD Biocoat GFR (growth factor reduced) Matrigel invasion chamber (BD Biosciences). Before the assay, lower surface of the membrane of the upper chamber was coated with collagen type I (10 μg/ml). MDA-MB-231 cells cultured on 2D plastic for two days with H14 medium containing different concentrations of glucose (17.5, 1.75 or 0 mM) or supplemented with metabolic inhibitors (40 μM IA or 20 μM DON, with 17.5 mM glucose) were detached by trypsinization, and 25,000 cells in each condition were seeded on the upper chambers. Both upper and lower chambers were filled with medium of the same formulations as that in each 2D culture. After 16 hours, cells were fixed with 4% PFA in PBS and stained with crystal violet.

Experiment [6] deals with T4-2 cells. Description: Mitochondrial activity (MitoTracker oxidation) assay in 3D lrECM. The format is cell-based, human. The method, then:
(§2) Cells suspended in 200 μl lrECM were seeded in 12 well glass-bottom plates (14 mm diameter; MatTek Corporation). Gels were overlaid with 500 μl H14 media and cultured for 10 days before each assay unless otherwise described.
For mitochondrial activity, we slightly modified the method described previously (Morici et al., 2007). Briefly, cells were incubated with 2 μM MitoTracker® Orange CM-H2 TMRos (Invitrogen) for 1 hour and fixed with PFA as above. Cells were counterstained with Hoechst 33342 (Invitrogen), which is known also to bind to DNA stoichiometrically, then MitoTracker and Hoechst staining were measured by taking z-section images from top to bottom of the gels using confocal microscopy.
(§3) In each assay, one well, containing only lrECM, was made for background measurements. Glucose uptake measured by 2DG uptake, lactate production and MitoTracker staining were normalized using total DNA levels, and presented relative to that of control (either S1 or non-treated T4-2 cells).

Experiment [7] deals with T4-2 cells. The experiment is described as follows: Glucose uptake assay (IRDye800CW-2DG) in 3D lrECM. The format is cell-based, human. The protocol:
as §2
For glucose uptake assay, cells were incubated with 1 μM of IRDye800CW-2DG (LI-COR Biosciences) for 1 hour, fixed within gels with 4% paraformaldehyde (PFA) in PBS for 30 min. and stained with DRAQ5 (1:10000 dilution), an infrared dye that binds stoichiometrically to DNA, for 30 min. Cells were extensively washed with PBS, then IRDye800-2DG uptake together with DRAQ5 staining were measured by using Odyssey Infrared Imaging System (LI-COR Biosciences).
as §3

Experiment [8] relates to T4-2 cells. Description: Lactate production assay in 3D lrECM. The format is cell-based, human. The protocol: as §2
For lactate production, on day 9, conditioned-media were harvested to measure lactate remaining in the 200 μl of the gel (assuming equilibrium between medium and gel, C0 nmol/μl). […] After 24 hours, total culture medium was harvested for measurement of final lactate concentrations (C nmol/μl) and total volumes (V μl) of the conditioned-media, and the cells in gel were fixed with PFA as above. Concentration of lactate in each sample was measured using a lactate assay kit (BioVision). Net lactate production within 24 hours (N) was calculated as follows: N=C×(V+200)−C0×200. Fixed cells were stained with DRAQ5, to measure total level of DNA as a surrogate for number of cells, and the staining was measured as above.
as §3

Setting [9] is: same inhibitor concentrations as E1.

On to `O=C(O)CI` [IA, Iodoacetate], for which, in [1], the other signaling activities entry is listed as “appreciable decrease”. The “EGFR and MEK” value in experiment [2] (basal medium 17.5 mM glucose, IA 20 μM, OX 50 mM) is listed as “not affected appreciably”. Moreover, in the experiment with MDA-MB-231 cells [3], the altered phenotype result is on record as “incomplete but still significant” and the “proliferation (total cell numbers)” value is given as “appreciable decrease”. Also, the “phenotypic reversion of the malignant phenotype” value in the experiment with T4-2 cells [4] is reported as “do induce phenotypic reversion”. In addition, the reversion phenotype result in the experiment with HCC70 cells is recorded as “reversion phenotype was similar to that in T4-2 cells”. For the same compound, the Rap1 activity result with Rap1 is recorded as “down-regulation of Rap1 activity without a change in its total protein level”. In addition, in the experiment with MDA-MB-231 cells [5], the invasive property entry is reported as “appreciable decrease”.
On to `[N-]=[N+]=CC(=O)CC[C@H](N)C(=O)O` [DON, 6-diazo-5-oxonorleucine], for which the other signaling activities entry in [1] is on record as “appreciable decrease”. For the same compound, in [2] (Western blot), the “levels and/or activities of EGFR, β1 integrin, Akt and MEK (oncogenic signaling)” value is “suppression of activation of oncogenic signaling”. Also, the “EGFR expression and activity” value in experiment [2] (Azs 20 μM, DON 20 μM) is “significantly down-regulated”. Also, in the experiment on MDA-MB-231 cells [3], the altered phenotype entry is given as “incomplete but still significant” and the “proliferation (total cell numbers)” value is “appreciable decrease”. In addition, in the experiment with T4-2 cells [4], the “phenotypic reversion of the malignant phenotype” value is recorded as “do induce phenotypic reversion; also recorded: induced the repertoire of the reversion phenotype”. Moreover, in the experiment on T4-2 cells [4] (setting [9]), the “basal polarity / organized acinar structures” value is reported as “re-establishment of tissue polarity” and the “growth / proliferation (cell numbers at the colony mid-section, EdU incorporation)” value was “growth arrest”. In the experiment with HCC70 cells, the reversion phenotype result was “reversion phenotype was similar to that in T4-2 cells”. For the same compound, in the experiment on T4-2 cells [6], the “mitochondrial activity (oxidation)” value is “remained unaltered”. The glucose uptake result in the experiment on T4-2 cells [7] was “significantly down-regulated”. Further, in the experiment on T4-2 cells [8], the lactate production result is listed as “significantly down-regulated”. In addition, the invasive property result with MDA-MB-231 cells [5] is on record as “appreciable decrease”.
